What all share (type): cell-based, mice
Test [1] has as its system IL-10. The experiment in a line: IL-10 production by LPS-stimulated murine peritoneal macrophage (ELISA). The note with it: for IL-10 by ELISA, % of solvent treated control: murine peritoneal macrophage; for IL-10 (LPS, Macrophages), amount of cytokine: 10 μM, 72 h. The protocol: (§1) Peritoneal macrophage or splenocytes (lymphocytes and macrophage) were harvested from donor mice using standard techniques. Cells were placed in culture and stimulated with either LPS (10 μg/mL) or concanavalin A 5 μg/mL (Sigma Chemical Co., St Louis, Mo.) in RPMI-1640 medium supplemented with antibiotics, […] 2-mercaptoethanol, 10 mm HEPES buffer and 10% fetal calf serum (FCS) (see Holan et al., 1985) to stimulate macrophage and T-cells respectively. Compounds were added from DMSO stock solutions to a final concentration of 50 μM or less with DMSO not exceeding 1% of total volume. After 72 h, cell supernatant was recovered and the cytokine levels were estimated by ELISA. The effect of compounds on cytokine production was recorded as follows: […]
(In general: ELISA stands for enzyme-linked immunosorbent assay.)

Test [2] deals with NO. The experiment in a line: NO production by LPS-stimulated macrophages. The note with it: 10 μM, 72 h.
Test [3] deals with T cells. The experiment in a line: Proliferation of Con A-stimulated T cells. The note with it: 10 μM. The protocol:
as §1

Test [4] has as its system IFN-g. The experiment in a line: IFN-g production by ConA-stimulated T cells. The note with it: 10 μM, 72 h. As to the method:
as §1

Test [5] has as its system IL-1β. The experiment in a line: IL-1β production by LPS-stimulated macrophages. The note with it: 5 μM, 72 h. The protocol: as §1
Test [6] relates to IL-6. The experiment in a line: IL-6 production by LPS-stimulated macrophages. The note with it: 10 μM, 72 h. The protocol: as §1
Test [7] deals with IL-2. The experiment in a line: IL-2 production by ConA-stimulated T cells. The note with it: 10 μM, 72 h. As to the method: as §1
Test [8] has as its system IL-4. The experiment in a line: IL-4 production, Con A, spleen. The note with it: 5 μM, 72 h. The protocol: as §1
The subject of test [9] is IL-10. The experiment in a line: IL-10 production by ConA-stimulated T cells. The note with it: 10 μM, 72 h. As to the method:
as §1

The subject of test [10] is B cells. The experiment in a line: Proliferation of LPS-stimulated B cells. The note with it: 10 μM.

Structures are written as SMILES. “And” between values parts separate entries of the source, which are not always exact repeats. Equal entries are not always repeated.

For the compound `CC[C@H]1OC(=O)[C@H](C)[C@@H](OC2CC(C)(OC)C(O)C(C)O2)[C@H](C)[C@@H](OC2OC(C)CC(NC)C2O)C(C)(O)C[C@@H](C)C(=O)[C@H](C)[C@@H](O)C1(C)O` (stereo partly drawn) [Compound 16, 3′-desmethyl erythromycin], the “IL-10 by ELISA, % of solvent treated control” value (from here on “IL-10 by ELISA, %”) in [1] (1 μM inhibitor in medium) is given as 117 % of solvent treated control; in test [1] (5 μM inhibitor in medium), 99 % of solvent treated control; in test [1] (20 μM inhibitor in medium), 8 % of solvent treated control. In test [2], the “NO (LPS, Macrophages), % of control treated with solvent alone” value (“NO (LPS, Macrophages), %” below) was 63 % of control treated with solvent alone. Besides, in [3], the “Proliferation (Con A, T cells)” value is recorded as 0 % of control treated with solvent alone. In test [4], the “IFN-g (ConA, T cells), amount of cytokine” value (“IFN-g (ConA, T cells)” below) was 2 % of control treated with solvent alone. For the same compound, the “IL-1β (Macrophages, LPS), amount of cytokine” value (“IL-1β (Macrophages, LPS)” for short) in test [5] was 85 % of control treated with solvent alone. For the same compound, the “IL-6 (LPS, Macrophages), amount of cytokine” value (from here on “IL-6 (LPS, Macrophages)”) in test [6] was 85 % of control treated with solvent alone.

As for `CC[C@H]1OC(=O)[C@H](C)[C@@H](O[C@H]2C[C@@](C)(OC)[C@@H](O)[C@H](C)O2)[C@H](C)[C@@H](O[C@@H]2O[C@H](C)C[C@H](N(C)CC3CO3)[C@H]2O)[C@](C)(O)C[C@@H](C)C(=O)[C@H](C)[C@@H](O)[C@]1(C)O` (stereo partly drawn) [Compound 18, 3′-desmethyl-3′-oxiranylmethyl erythromycin], the “IL-10 by ELISA, %” value in [1] (1 μM inhibitor in medium) was 124 % of solvent treated control; in [1] (5 μM inhibitor in medium), 109 % of solvent treated control; in test [1] (10 μM inhibitor in medium), 109 % of solvent treated control; in [1] (20 μM inhibitor in medium), 57 % of solvent treated control. Further, in test [1], the “IL-10 (LPS, Macrophages), amount of cytokine” value is 110 % of control treated with solvent alone and 108 % of control treated with solvent alone. Also, the “NO (LPS, Macrophages), %” value in [2] is 47 % of control treated with solvent alone and 54 % of control treated with solvent alone and 65 % of control treated with solvent alone. Besides, the “IL-2 (ConA, T cells), amount of cytokine” value in test [7] was 52 % of control treated with solvent alone and 86 % of control treated with solvent alone. Further, the “IL-1β (Macrophages, LPS)” value in test [5] is 104 % of control treated with solvent alone and 81 % of control treated with solvent alone and 70 % of control treated with solvent alone. The “IL-6 (LPS, Macrophages)” value in test [6] was 90 % of control treated with solvent alone and 109 % of control treated with solvent alone and 106 % of control treated with solvent alone. Further, the “IL-4 (Con A, spleen), amount of cytokine” value in test [8] was 91 % of control treated with solvent alone and 84 % of control treated with solvent alone. In test [9], the “IL-10 (ConA, T cells), amount of cytokine” value was 38 % of control treated with solvent alone and 70 % of control treated with solvent alone.

As to `CC[C@H]1OC(=O)[C@H](C)[C@@H](O[C@H]2C[C@@](C)(OC)[C@@H](O)[C@H](C)O2)[C@H](C)[C@@H](O[C@@H]2O[C@H](C)C[C@H](N(C)CC(O)CSc3nc(-c4ccc(F)cc4)c(-c4ccncc4)[nH]3)[C@H]2O)[C@](C)(O)C[C@@H](C)CN(C)[C@H](C)[C@@H](O)[C@]1(C)O` (stereo partly drawn) [Compound 20], the “IL-10 by ELISA, %” value in [1] (1.25 μM inhibitor in medium) is −11 % of solvent treated control; in test [1] (5 μM inhibitor in medium), −12 % of solvent treated control; in test [1] (20 μM inhibitor in medium), −12 % of solvent treated control. Moreover, the “Proliferation (LPS, B cells)” value in test [10] is −1 % of control treated with solvent alone. In addition, in test [3], the “Proliferation (Con A, T cells)” value is 0 % of control treated with solvent alone. For the same compound, the “IL-1β (Macrophages, LPS)” value in test [5] is given as 34 % of control treated with solvent alone. Further, the “IL-4 (Con A, spleen), amount of cytokine” value in test [8] is −5 % of control treated with solvent alone.

Take `CC[C@H]1OC(=O)[C@H](C)[C@@H](O[C@H]2C[C@@](C)(OC)[C@@H](O)[C@H](C)O2)[C@H](C)[C@@H](O[C@@H]2O[C@H](C)C[C@H](N(C)CC(O)CSc3nc(-c4ccc(F)cc4)c(-c4ccncc4)[nH]3)[C@H]2O)[C@](C)(O)C[C@@H](C)C(=O)[C@H](C)[C@@H](O)[C@]1(C)O` (stereo partly drawn) [Compound 21]: the “IL-10 by ELISA, %” value in [1] (0.31 μM inhibitor in medium) was 132 % of solvent treated control; in test [1] (1.25 μM inhibitor in medium), 95 % of solvent treated control; in [1] (5 μM inhibitor in medium), 1 % of solvent treated control; in test [1] (10 μM inhibitor in medium) it was −13 % of solvent treated control; in [1] (20 μM inhibitor in medium), −8 % of solvent treated control. Also, the “IFN-g (ConA, T cells)” value in [4] was 0 % of control treated with solvent alone. In addition, the “IL-1β (Macrophages, LPS)” value in test [5] was 101 % of control treated with solvent alone and 143 % of control treated with solvent alone. Moreover, in test [6], the “IL-6 (LPS, Macrophages)” value is 101 % of control treated with solvent alone.

With `CC[C@H]1OC(=O)[C@H](C)[C@@H](O)[C@H](C)[C@@H](O[C@@H]2O[C@H](C)C[C@H](N(C)CC(O)CSc3nc(-c4ccc(F)cc4)c(-c4ccncc4)[nH]3)[C@H]2O)[C@](C)(O)C[C@@H](C)CN(C)[C@H](C)[C@@H](O)[C@]1(C)O` (stereo partly drawn) [Compound 22], the “IL-10 by ELISA, %” value is 103 % of solvent treated control in test [1] (0.31 μM inhibitor in medium); 86 % of solvent treated control in test [1] (1.25 μM inhibitor in medium); 43 % of solvent treated control in test [1] (5 μM inhibitor in medium); 13 % of solvent treated control in test [1] (10 μM inhibitor in medium); −3 % of solvent treated control in [1] (20 μM inhibitor in medium). Further, the “IL-10 (LPS, Macrophages), amount of cytokine” value in [1] is recorded as 13 % of control treated with solvent alone. In addition, the “NO (LPS, Macrophages), %” value in test [2] was 69 % of control treated with solvent alone. In [7], the “IL-2 (ConA, T cells), amount of cytokine” value is listed as 29 % of control treated with solvent alone. Also, the “Proliferation (Con A, T cells)” value in test [3] is reported as 10 % of control treated with solvent alone. In test [4], the “IFN-g (ConA, T cells)” value is reported as 41 % of control treated with solvent alone. In [5], the “IL-1β (Macrophages, LPS)” value is 90 % of control treated with solvent alone and 106 % of control treated with solvent alone. In addition, in [6], the “IL-6 (LPS, Macrophages)” value is reported as 116 % of control treated with solvent alone. In addition, the “IL-4 (Con A, spleen), amount of cytokine” value in test [8] was 237 % of control treated with solvent alone and 407 % of control treated with solvent alone. Besides, the “IL-10 (ConA, T cells), amount of cytokine” value in test [9] is on record as 144 % of control treated with solvent alone.

As for `CC[C@H]1OC(=O)[C@H](C)[C@@H](O[C@H]2C[C@@](C)(OC)[C@@H](O)[C@H](C)O2)[C@H](C)[C@@H](O[C@@H]2O[C@H](C)C[C@H](N(C)CCCC(=O)OCC(O)CSc3nc(-c4ccc(F)cc4)c(-c4ccncc4)[nH]3)[C@H]2O)[C@](C)(O)C[C@@H](C)CN(C)[C@H](C)[C@@H](O)[C@]1(C)O` (stereo partly drawn) [Compound 43g], the “IL-10 by ELISA, %” value was 26 % of solvent treated control in test [1] (1.25 μM inhibitor in medium), −12 % of solvent treated control in test [1] (5 μM inhibitor in medium) and −12 % of solvent treated control in [1] (20 μM inhibitor in medium). Moreover, the “Proliferation (LPS, B cells)” value in test [10] is on record as −1 % of control treated with solvent alone. In test [3], the “Proliferation (Con A, T cells)” value is listed as 3 % of control treated with solvent alone. Besides, in test [5], the “IL-1β (Macrophages, LPS)” value is 28 % of control treated with solvent alone. Also, in [8], the “IL-4 (Con A, spleen), amount of cytokine” value was 125 % of control treated with solvent alone.

For `CC[C@H]1OC(=O)[C@H](C)[C@@H](O[C@H]2C[C@@](C)(OC)[C@@H](O)[C@H](C)O2)[C@H](C)[C@@H](O[C@@H]2O[C@H](C)C[C@H](N(C)CCCC(=O)OCC(O)CSc3nc(-c4ccc(F)cc4)c(-c4ccnc(NC(C)c5ccccc5)c4)[nH]3)[C@H]2O)[C@](C)(O)C[C@@H](C)CN(C)[C@H](C)[C@@H](O)[C@]1(C)O` (stereo partly drawn) [Compound 43i], the results for the “IL-10 by ELISA, %” value in [1] (2 μM inhibitor in medium), in test [1] (10 μM inhibitor in medium) and in test [1] (50 μM inhibitor in medium) were 25 % of solvent treated control, 3 % of solvent treated control and 0 % of solvent treated control, respectively. The “IL-6 (LPS, Macrophages)” value in test [6] was 33 % of control treated with solvent alone and 32 % of control treated with solvent alone. Further, the “IL-4 (Con A, spleen), amount of cytokine” value in test [8] is 8 % of control treated with solvent alone.

The record behind these values is patent US9617221B2, “Kinase modulators for the treatment of cancer” (Synovo GmbH, priority 2010, dated 2017).
